# In patent US8445492B2, “Method for inhibiting growth of cancer cells and cell telomere and diseases of cell proliferation by using heteroannelated anthraquinone derivative compounds” (National Defense Medical Center, priority 2008, dated 2013):
# Experiments:
# Format in all cases: cell-based
# Details in all cases: for GI50: read-out: GI50
# SW-620 = assay: NCI DTP in-vitro dose response, Colon Cancer
# KM12 = assay: NCI DTP in-vitro dose response, Colon Cancer
# HT29 = assay: NCI DTP in-vitro dose response, Colon Cancer
# HCT-116 = assay: NCI DTP in-vitro dose response, Colon Cancer
# HCT-15 = assay: NCI DTP in-vitro dose response, Colon Cancer
# COLO 205 = assay: NCI DTP in-vitro dose response, Colon Cancer
# HCC-2998 = assay: NCI DTP in-vitro dose response, Colon Cancer
# U251 = assay: NCI DTP in-vitro dose response, CNS Cancer
# SNB-75 = assay: NCI DTP in-vitro dose response, CNS Cancer
# SF-539 = assay: NCI DTP in-vitro dose response, CNS Cancer
# SF-268 = assay: NCI DTP in-vitro dose response, CNS Cancer
# SNB-19 = assay: NCI DTP in-vitro dose response, CNS Cancer
# SF-295 = assay: NCI DTP in-vitro dose response, CNS Cancer
compound,measurement,setting,value
CCc1nc2ccc3c(c2[nH]1)C(=O)c1ccccc1C3=O [TABLE 4-3],CC50,SW-620,> 100 µM
same,TGI,SW-620,>1.00E−4
same,Percent Growth,SW-620; Log10 Concentration −4.0,6%
same,Percent Growth,SW-620; Log10 Concentration −5.0,39%
same,Percent Growth,SW-620; Log10 Concentration −6.0,89%
same,Percent Growth,SW-620; Log10 Concentration −7.0,96%
same,Percent Growth,SW-620; Log10 Concentration −8.0,99%
same,GI50,SW-620,5.97 µM
same,CC50,KM12,> 100 µM
same,TGI,KM12,>1.00E−4
same,Percent Growth,KM12; Log10 Concentration −4.0,13%
same,Percent Growth,KM12; Log10 Concentration −5.0,43%
same,Percent Growth,KM12; Log10 Concentration −6.0,89%
same,Percent Growth,KM12; Log10 Concentration −7.0,94%
same,Percent Growth,KM12; Log10 Concentration −8.0,98%
same,GI50,KM12,7.15 µM
same,CC50,HT29,> 100 µM
same,TGI,HT29,>1.00E−4
same,Percent Growth,HT29; Log10 Concentration −4.0,11%
same,Percent Growth,HT29; Log10 Concentration −5.0,48%
same,Percent Growth,HT29; Log10 Concentration −6.0,88%
same,Percent Growth,HT29; Log10 Concentration −7.0,100%
same,Percent Growth,HT29; Log10 Concentration −8.0,94%
same,GI50,HT29,8.84 µM
same,CC50,HCT-116,> 100 µM
same,TGI,HCT-116,>1.00E−4
same,Percent Growth,HCT-116; Log10 Concentration −4.0,11%
same,Percent Growth,HCT-116; Log10 Concentration −5.0,42%
same,Percent Growth,HCT-116; Log10 Concentration −6.0,78%
same,Percent Growth,HCT-116; Log10 Concentration −7.0,95%
same,Percent Growth,HCT-116; Log10 Concentration −8.0,92%
same,GI50,HCT-116,6.1 µM
same,CC50,HCT-15,> 100 µM
same,TGI,HCT-15,>1.00E−4
same,Percent Growth,HCT-15; Log10 Concentration −4.0,8%
same,Percent Growth,HCT-15; Log10 Concentration −5.0,27%
same,Percent Growth,HCT-15; Log10 Concentration −6.0,69%
same,Percent Growth,HCT-15; Log10 Concentration −7.0,93%
same,Percent Growth,HCT-15; Log10 Concentration −8.0,90%
same,GI50,HCT-15,2.82 µM
same,CC50,COLO 205,> 100 µM
same,TGI,COLO 205,>1.00E−4
same,Percent Growth,COLO 205; Log10 Concentration −4.0,9%
same,Percent Growth,COLO 205; Log10 Concentration −5.0,41%
same,Percent Growth,COLO 205; Log10 Concentration −6.0,85%
same,Percent Growth,COLO 205; Log10 Concentration −7.0,93%
same,Percent Growth,COLO 205; Log10 Concentration −8.0,93%
same,GI50,COLO 205,6.36 µM
same,CC50,HCC-2998,> 100 µM
same,TGI,HCC-2998,>1.00E−4
same,Percent Growth,HCC-2998; Log10 Concentration −4.0,22%
same,Percent Growth,HCC-2998; Log10 Concentration −5.0,59%
same,Percent Growth,HCC-2998; Log10 Concentration −6.0,90%
same,Percent Growth,HCC-2998; Log10 Concentration −7.0,94%
same,Percent Growth,HCC-2998; Log10 Concentration −8.0,88%
same,GI50,HCC-2998,17.4 µM
CCc1nc2ccc3c(c2[nH]1)C(=O)c1ccccc1C3=O [TABLE 4-4],CC50,U251,> 100 µM
same,TGI,U251,>1.00E−4
same,Percent Growth,U251; Log10 Concentration −4.0,27%
same,Percent Growth,U251; Log10 Concentration −5.0,49%
same,Percent Growth,U251; Log10 Concentration −6.0,84%
same,Percent Growth,U251; Log10 Concentration −7.0,96%
same,Percent Growth,U251; Log10 Concentration −8.0,94%
same,GI50,U251,9.58 µM
same,CC50,SNB-75,> 100 µM
same,TGI,SNB-75,>1.00E−4
same,Percent Growth,SNB-75; Log10 Concentration −4.0,17%
same,Percent Growth,SNB-75; Log10 Concentration −5.0,41%
same,Percent Growth,SNB-75; Log10 Concentration −6.0,49%
same,Percent Growth,SNB-75; Log10 Concentration −7.0,66%
same,Percent Growth,SNB-75; Log10 Concentration −8.0,66%
same,GI50,SNB-75,0.872 µM
same,CC50,SF-539,> 100 µM
same,TGI,SF-539,>1.00E−4
same,Percent Growth,SF-539; Log10 Concentration −4.0,13%
same,Percent Growth,SF-539; Log10 Concentration −5.0,46%
same,Percent Growth,SF-539; Log10 Concentration −6.0,80%
same,Percent Growth,SF-539; Log10 Concentration −7.0,83%
same,Percent Growth,SF-539; Log10 Concentration −8.0,81%
same,GI50,SF-539,7.46 µM
same,CC50,SF-268,> 100 µM
same,TGI,SF-268,>1.00E−4
same,Percent Growth,SF-268; Log10 Concentration −4.0,28%
same,Percent Growth,SF-268; Log10 Concentration −5.0,57%
same,Percent Growth,SF-268; Log10 Concentration −6.0,88%
same,Percent Growth,SF-268; Log10 Concentration −7.0,96%
same,Percent Growth,SF-268; Log10 Concentration −8.0,87%
same,GI50,SF-268,17.7 µM
same,CC50,SNB-19,> 100 µM
same,TGI,SNB-19,>1.00E−4
same,Percent Growth,SNB-19; Log10 Concentration −4.0,39%
same,Percent Growth,SNB-19; Log10 Concentration −5.0,61%
same,Percent Growth,SNB-19; Log10 Concentration −6.0,92%
same,Percent Growth,SNB-19; Log10 Concentration −7.0,94%
same,Percent Growth,SNB-19; Log10 Concentration −8.0,84%
same,GI50,SNB-19,30.9 µM
same,CC50,SF-295,> 100 µM
same,TGI,SF-295,>1.00E−4
same,Percent Growth,SF-295; Log10 Concentration −4.0,9%
same,Percent Growth,SF-295; Log10 Concentration −5.0,35%
same,Percent Growth,SF-295; Log10 Concentration −6.0,69%
same,Percent Growth,SF-295; Log10 Concentration −7.0,90%
same,Percent Growth,SF-295; Log10 Concentration −8.0,88%
same,GI50,SF-295,3.65 µM
O=C1c2ccccc2C(=O)c2c1ccc1nccnc21 [TABLE 5-3],CC50,SW-620,> 100 µM
same,TGI,SW-620,3.08E−5
same,Percent Growth,SW-620; Log10 Concentration −4.0,−26%
same,Percent Growth,SW-620; Log10 Concentration −5.0,25%
same,Percent Growth,SW-620; Log10 Concentration −6.0,58%
same,Percent Growth,SW-620; Log10 Concentration −7.0,87%
same,Percent Growth,SW-620; Log10 Concentration −8.0,94%
same,GI50,SW-620,1.71 µM
same,CC50,KM12,> 100 µM
same,TGI,KM12,4.95E−5
same,Percent Growth,KM12; Log10 Concentration −4.0,−18%
same,Percent Growth,KM12; Log10 Concentration −5.0,40%
same,Percent Growth,KM12; Log10 Concentration −6.0,76%
same,Percent Growth,KM12; Log10 Concentration −7.0,90%
same,Percent Growth,KM12; Log10 Concentration −8.0,89%
same,GI50,KM12,5.26 µM
same,CC50,HT29,> 100 µM
same,TGI,HT29,>1.00E−4
same,Percent Growth,HT29; Log10 Concentration −4.0,1%
same,Percent Growth,HT29; Log10 Concentration −5.0,46%
same,Percent Growth,HT29; Log10 Concentration −6.0,74%
same,Percent Growth,HT29; Log10 Concentration −7.0,95%
same,Percent Growth,HT29; Log10 Concentration −8.0,99%
same,GI50,HT29,7.01 µM
same,CC50,HCT-116,> 100 µM
same,TGI,HCT-116,>1.00E−4
same,Percent Growth,HCT-116; Log10 Concentration −4.0,3%
same,Percent Growth,HCT-116; Log10 Concentration −5.0,55%
same,Percent Growth,HCT-116; Log10 Concentration −6.0,91%
same,Percent Growth,HCT-116; Log10 Concentration −7.0,99%
same,Percent Growth,HCT-116; Log10 Concentration −8.0,96%
same,GI50,HCT-116,12.3 µM
same,CC50,HCT-15,> 100 µM
same,TGI,HCT-15,8.43E−5
same,Percent Growth,HCT-15; Log10 Concentration −4.0,−3%
same,Percent Growth,HCT-15; Log10 Concentration −5.0,37%
same,Percent Growth,HCT-15; Log10 Concentration −6.0,77%
same,Percent Growth,HCT-15; Log10 Concentration −7.0,84%
same,Percent Growth,HCT-15; Log10 Concentration −8.0,88%
same,GI50,HCT-15,4.63 µM
same,CC50,COLO 205,> 100 µM
same,TGI,COLO 205,2.84E−5
same,Percent Growth,COLO 205; Log10 Concentration −4.0,−35%
same,Percent Growth,COLO 205; Log10 Concentration −5.0,29%
same,Percent Growth,COLO 205; Log10 Concentration −6.0,74%
same,Percent Growth,COLO 205; Log10 Concentration −7.0,86%
same,Percent Growth,COLO 205; Log10 Concentration −8.0,92%
same,GI50,COLO 205,3.4 µM
same,CC50,HCC-2998,> 100 µM
same,TGI,HCC-2998,8.35E−5
same,Percent Growth,HCC-2998; Log10 Concentration −4.0,−3%
same,Percent Growth,HCC-2998; Log10 Concentration −5.0,40%
same,Percent Growth,HCC-2998; Log10 Concentration −6.0,52%
same,Percent Growth,HCC-2998; Log10 Concentration −7.0,94%
same,Percent Growth,HCC-2998; Log10 Concentration −8.0,97%
same,GI50,HCC-2998,1.4 µM
O=C1c2ccccc2C(=O)c2c1ccc1nccnc21 [TABLE 5-4],CC50,U251,> 100 µM
same,TGI,U251,4.29E−5
same,Percent Growth,U251; Log10 Concentration −4.0,−21%
same,Percent Growth,U251; Log10 Concentration −5.0,35%
same,Percent Growth,U251; Log10 Concentration −6.0,89%
same,Percent Growth,U251; Log10 Concentration −7.0,93%
same,Percent Growth,U251; Log10 Concentration −8.0,96%
same,GI50,U251,5.38 µM
same,CC50,SNB-75,> 100 µM
same,TGI,SNB-75,>1.00E−4
same,Percent Growth,SNB-75; Log10 Concentration −4.0,11%
same,Percent Growth,SNB-75; Log10 Concentration −5.0,53%
same,Percent Growth,SNB-75; Log10 Concentration −6.0,76%
same,Percent Growth,SNB-75; Log10 Concentration −7.0,87%
same,Percent Growth,SNB-75; Log10 Concentration −8.0,83%
same,GI50,SNB-75,11.9 µM
same,CC50,SF-539,> 100 µM
same,TGI,SF-539,5.37E−5
same,Percent Growth,SF-539; Log10 Concentration −4.0,−9%
same,Percent Growth,SF-539; Log10 Concentration −5.0,23%
same,Percent Growth,SF-539; Log10 Concentration −6.0,64%
same,Percent Growth,SF-539; Log10 Concentration −7.0,88%
same,Percent Growth,SF-539; Log10 Concentration −8.0,90%
same,GI50,SF-539,2.18 µM
same,CC50,SF-268,> 100 µM
same,TGI,SF-268,>1.00E−4
same,Percent Growth,SF-268; Log10 Concentration −4.0,1%
same,Percent Growth,SF-268; Log10 Concentration −5.0,34%
same,Percent Growth,SF-268; Log10 Concentration −6.0,86%
same,Percent Growth,SF-268; Log10 Concentration −7.0,92%
same,Percent Growth,SF-268; Log10 Concentration −8.0,96%
same,GI50,SF-268,4.98 µM
same,CC50,SNB-19,> 100 µM
same,TGI,SNB-19,>1.00E−4
same,Percent Growth,SNB-19; Log10 Concentration −4.0,4%
same,Percent Growth,SNB-19; Log10 Concentration −5.0,57%
same,Percent Growth,SNB-19; Log10 Concentration −6.0,90%
same,Percent Growth,SNB-19; Log10 Concentration −7.0,93%
same,Percent Growth,SNB-19; Log10 Concentration −8.0,94%
same,GI50,SNB-19,13.4 µM
same,CC50,SF-295,> 100 µM
same,TGI,SF-295,3.23E−5
same,Percent Growth,SF-295; Log10 Concentration −4.0,−24%
same,Percent Growth,SF-295; Log10 Concentration −5.0,25%
same,Percent Growth,SF-295; Log10 Concentration −6.0,95%
same,Percent Growth,SF-295; Log10 Concentration −7.0,83%
same,Percent Growth,SF-295; Log10 Concentration −8.0,90%
same,GI50,SF-295,4.35 µM
